Experimental data from patent US20250041300A1, “PHARMACEUTICAL COMBINATION COMPRISING ABEMACICLIB AND A PI3K AND/OR A MTOR INHIBITOR FOR THE TREATMENT OF MANTLE CELL LYMPHOMA” (Board of Regents, The University of Texas System, priority 2021, published 2025).

Tests used:
[1] = target: PI3Kδ (Homo sapiens, UniProt O00329); details: cited from earlier work
[2] = target: mTOR (Homo sapiens, UniProt P42345); details: cited from earlier work
[3] = target: PI3Kα (Homo sapiens, UniProt P42336); details: cited from earlier work
Sequence of PI3Kα (P42336 whole entry): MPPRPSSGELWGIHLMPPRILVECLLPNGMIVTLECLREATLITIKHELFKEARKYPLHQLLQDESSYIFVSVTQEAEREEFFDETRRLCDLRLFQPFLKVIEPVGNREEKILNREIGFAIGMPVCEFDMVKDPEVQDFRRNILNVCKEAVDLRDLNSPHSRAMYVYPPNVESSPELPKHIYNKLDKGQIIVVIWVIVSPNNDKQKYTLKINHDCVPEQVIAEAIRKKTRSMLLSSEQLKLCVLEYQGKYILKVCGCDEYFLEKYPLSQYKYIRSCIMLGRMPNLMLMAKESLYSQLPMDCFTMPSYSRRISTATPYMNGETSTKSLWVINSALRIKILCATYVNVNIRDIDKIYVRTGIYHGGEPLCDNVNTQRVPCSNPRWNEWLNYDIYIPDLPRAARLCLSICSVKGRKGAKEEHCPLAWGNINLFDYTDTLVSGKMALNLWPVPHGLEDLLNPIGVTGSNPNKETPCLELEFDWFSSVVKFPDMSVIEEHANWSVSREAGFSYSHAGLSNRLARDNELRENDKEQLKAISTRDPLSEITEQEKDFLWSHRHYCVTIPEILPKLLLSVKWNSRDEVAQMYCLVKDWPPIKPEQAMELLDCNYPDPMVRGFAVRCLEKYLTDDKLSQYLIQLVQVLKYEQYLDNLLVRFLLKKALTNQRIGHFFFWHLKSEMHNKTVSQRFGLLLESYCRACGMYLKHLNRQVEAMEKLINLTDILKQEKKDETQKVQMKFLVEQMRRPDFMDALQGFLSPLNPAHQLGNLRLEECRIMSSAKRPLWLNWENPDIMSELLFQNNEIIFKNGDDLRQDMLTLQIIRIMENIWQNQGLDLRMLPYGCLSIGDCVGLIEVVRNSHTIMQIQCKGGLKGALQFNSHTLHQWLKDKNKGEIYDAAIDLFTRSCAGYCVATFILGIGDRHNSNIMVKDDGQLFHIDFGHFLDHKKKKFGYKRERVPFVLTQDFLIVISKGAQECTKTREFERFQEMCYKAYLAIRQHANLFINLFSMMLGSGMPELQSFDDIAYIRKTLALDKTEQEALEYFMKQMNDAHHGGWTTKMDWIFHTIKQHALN
Sequence of PI3Kα (P27986 whole entry partner): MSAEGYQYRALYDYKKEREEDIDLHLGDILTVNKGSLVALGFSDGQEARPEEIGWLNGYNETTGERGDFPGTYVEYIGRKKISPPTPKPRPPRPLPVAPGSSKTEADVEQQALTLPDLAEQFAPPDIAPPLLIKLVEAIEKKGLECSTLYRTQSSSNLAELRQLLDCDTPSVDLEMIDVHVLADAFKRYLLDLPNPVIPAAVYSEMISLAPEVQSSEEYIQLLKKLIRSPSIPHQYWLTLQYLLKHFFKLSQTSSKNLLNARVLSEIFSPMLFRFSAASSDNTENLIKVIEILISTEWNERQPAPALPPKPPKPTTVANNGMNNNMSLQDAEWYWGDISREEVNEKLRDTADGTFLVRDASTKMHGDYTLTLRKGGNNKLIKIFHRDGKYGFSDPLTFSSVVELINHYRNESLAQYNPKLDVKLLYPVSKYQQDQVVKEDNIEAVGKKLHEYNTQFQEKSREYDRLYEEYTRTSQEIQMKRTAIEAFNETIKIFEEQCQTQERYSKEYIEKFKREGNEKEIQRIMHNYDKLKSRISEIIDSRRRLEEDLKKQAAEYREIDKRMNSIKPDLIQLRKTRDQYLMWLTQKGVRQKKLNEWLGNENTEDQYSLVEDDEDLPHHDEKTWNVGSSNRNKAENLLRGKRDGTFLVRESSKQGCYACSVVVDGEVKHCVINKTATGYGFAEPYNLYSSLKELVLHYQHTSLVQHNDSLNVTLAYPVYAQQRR

[4] = target: PI3Kβ (Homo sapiens, UniProt P42338); details: cited from earlier work
Sequence of PI3Kβ (P42338 whole entry): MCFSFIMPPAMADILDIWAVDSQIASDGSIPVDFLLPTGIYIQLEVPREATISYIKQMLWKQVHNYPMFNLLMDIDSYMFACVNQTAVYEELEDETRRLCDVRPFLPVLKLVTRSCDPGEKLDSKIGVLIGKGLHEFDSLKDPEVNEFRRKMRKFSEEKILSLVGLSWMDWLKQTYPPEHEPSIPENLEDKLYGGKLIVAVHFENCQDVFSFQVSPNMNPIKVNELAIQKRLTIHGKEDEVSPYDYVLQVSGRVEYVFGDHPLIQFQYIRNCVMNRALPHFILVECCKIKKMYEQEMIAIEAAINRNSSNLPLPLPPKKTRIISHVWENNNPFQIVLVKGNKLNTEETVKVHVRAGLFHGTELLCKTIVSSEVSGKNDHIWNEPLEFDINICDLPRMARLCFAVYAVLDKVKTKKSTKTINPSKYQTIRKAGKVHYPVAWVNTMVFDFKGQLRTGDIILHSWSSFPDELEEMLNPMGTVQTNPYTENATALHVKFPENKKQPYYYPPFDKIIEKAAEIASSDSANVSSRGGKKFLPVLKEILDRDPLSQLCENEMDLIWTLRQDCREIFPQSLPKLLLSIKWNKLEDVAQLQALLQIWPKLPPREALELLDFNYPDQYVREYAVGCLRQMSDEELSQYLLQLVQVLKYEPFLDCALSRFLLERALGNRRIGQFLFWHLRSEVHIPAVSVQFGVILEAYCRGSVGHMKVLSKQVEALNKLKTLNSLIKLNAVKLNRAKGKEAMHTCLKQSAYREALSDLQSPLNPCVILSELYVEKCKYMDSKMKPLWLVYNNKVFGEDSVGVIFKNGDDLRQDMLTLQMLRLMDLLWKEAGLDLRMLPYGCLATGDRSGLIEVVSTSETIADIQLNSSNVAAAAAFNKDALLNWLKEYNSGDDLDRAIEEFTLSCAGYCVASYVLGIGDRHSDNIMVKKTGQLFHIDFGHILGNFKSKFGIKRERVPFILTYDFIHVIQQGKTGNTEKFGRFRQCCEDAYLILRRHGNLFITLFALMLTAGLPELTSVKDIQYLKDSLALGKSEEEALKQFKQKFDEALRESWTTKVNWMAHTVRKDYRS
Sequence of PI3Kβ (P27986 whole entry partner): as the sequence (P27986 whole entry partner) above

[5] = target: PI3Kγ (Homo sapiens, UniProt P48736); details: cited from earlier work
Sequence of PI3Kγ (P48736 whole entry): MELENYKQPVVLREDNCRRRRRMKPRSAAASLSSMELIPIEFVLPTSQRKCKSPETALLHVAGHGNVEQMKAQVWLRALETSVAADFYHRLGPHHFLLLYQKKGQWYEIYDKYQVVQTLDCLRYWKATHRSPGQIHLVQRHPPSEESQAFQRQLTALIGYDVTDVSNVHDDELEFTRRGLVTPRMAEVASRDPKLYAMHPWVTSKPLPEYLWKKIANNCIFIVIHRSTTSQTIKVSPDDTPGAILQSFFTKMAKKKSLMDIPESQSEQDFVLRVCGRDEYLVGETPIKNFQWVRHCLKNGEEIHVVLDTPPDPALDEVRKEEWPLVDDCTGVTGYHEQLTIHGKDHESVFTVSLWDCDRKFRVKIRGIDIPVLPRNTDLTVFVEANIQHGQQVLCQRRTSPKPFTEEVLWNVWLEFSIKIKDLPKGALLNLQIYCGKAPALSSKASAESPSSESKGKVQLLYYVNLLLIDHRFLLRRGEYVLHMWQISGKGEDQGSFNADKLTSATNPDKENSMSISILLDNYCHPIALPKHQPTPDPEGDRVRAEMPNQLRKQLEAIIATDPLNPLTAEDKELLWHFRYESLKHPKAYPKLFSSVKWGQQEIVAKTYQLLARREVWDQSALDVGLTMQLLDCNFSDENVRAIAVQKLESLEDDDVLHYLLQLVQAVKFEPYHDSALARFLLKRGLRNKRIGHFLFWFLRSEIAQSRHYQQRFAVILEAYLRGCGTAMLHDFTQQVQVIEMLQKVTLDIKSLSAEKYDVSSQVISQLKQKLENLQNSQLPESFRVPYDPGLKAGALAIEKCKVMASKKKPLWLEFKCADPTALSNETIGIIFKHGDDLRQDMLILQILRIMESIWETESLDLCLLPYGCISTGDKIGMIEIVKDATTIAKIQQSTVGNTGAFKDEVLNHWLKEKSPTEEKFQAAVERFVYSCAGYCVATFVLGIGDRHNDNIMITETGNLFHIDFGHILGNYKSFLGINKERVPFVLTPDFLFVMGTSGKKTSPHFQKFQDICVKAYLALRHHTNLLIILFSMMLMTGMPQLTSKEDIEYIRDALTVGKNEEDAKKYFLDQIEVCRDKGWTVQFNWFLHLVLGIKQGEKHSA

[6] = system: class I PI3Ks; details: cited from earlier work
[7] = target: mTORC1/2 (Homo sapiens, UniProt P42345); details: in words; cited from earlier work
[8] = system: Rec-ven-R cells; experiment: CellTiter-Glo Luminescent Cell viability Assay, abemaciclib single agent; type: cell-based; details: 72h, acquired venetoclax resistance
Experimental: (§1) IC50 values were calculated using GraphPad Prism 8 for each cell line. Student's t-test was performed to compare the difference between vehicle and treated groups. Two-way analysis of variance (ANOVA) was conducted to analyze the tumor growth in vivo experiments. P values less than 0.05 were considered statistically significant.

[9] = system: MCL cell lines (Mino, Rec-1, Maver-1, Z138, JeKo-1); experiment: as above; type: cell-based; details: 72h; range over venetoclax sensitive (Mino, Rec-1, Maver-1, Z138) and primary resistant (JeKo-1) MCL cells
Experimental: as §1

[10] = system: Mino-ven-R cells; experiment: as above; type: cell-based; details: 72h, acquired venetoclax resistance
Experimental: as §1

Sequence of PI3Kδ (O00329 whole entry): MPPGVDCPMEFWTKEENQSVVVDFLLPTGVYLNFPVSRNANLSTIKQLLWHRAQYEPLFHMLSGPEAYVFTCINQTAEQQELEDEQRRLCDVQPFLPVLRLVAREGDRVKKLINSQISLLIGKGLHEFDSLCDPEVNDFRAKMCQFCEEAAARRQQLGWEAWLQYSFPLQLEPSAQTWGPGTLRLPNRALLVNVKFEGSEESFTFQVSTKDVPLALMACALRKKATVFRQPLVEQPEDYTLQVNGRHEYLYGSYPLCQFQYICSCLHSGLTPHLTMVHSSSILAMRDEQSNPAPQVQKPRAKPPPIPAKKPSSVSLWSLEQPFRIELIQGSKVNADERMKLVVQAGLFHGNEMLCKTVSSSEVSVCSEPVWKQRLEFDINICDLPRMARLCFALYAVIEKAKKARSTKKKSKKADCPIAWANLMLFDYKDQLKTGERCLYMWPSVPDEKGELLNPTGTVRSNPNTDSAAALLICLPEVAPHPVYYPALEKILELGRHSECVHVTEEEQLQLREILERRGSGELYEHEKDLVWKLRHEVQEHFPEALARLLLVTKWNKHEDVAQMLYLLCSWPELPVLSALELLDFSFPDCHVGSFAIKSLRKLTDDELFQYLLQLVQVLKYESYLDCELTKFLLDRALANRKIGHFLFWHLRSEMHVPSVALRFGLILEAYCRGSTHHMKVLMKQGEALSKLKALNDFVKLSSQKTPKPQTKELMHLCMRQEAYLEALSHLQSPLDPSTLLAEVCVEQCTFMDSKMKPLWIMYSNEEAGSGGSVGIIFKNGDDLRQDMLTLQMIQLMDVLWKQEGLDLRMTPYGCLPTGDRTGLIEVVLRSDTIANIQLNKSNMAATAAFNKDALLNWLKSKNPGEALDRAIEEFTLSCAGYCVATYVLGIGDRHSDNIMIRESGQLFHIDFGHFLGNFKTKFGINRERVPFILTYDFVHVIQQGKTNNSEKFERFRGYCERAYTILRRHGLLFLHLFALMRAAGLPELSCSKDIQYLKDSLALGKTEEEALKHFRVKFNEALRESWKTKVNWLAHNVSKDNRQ
Sequence of PI3Kδ (P27986 whole entry partner): as the sequence (P27986 whole entry partner) above

For `C[C@@H](Nc1cc(F)cc(F)c1)c1cc(C(=O)N(C)C)cc2c(=O)cc(N3CCOCC3)oc12` [AZD8186, 8-[(1R)-1-(3,5-difluoroanilino)ethyl]-N,N-dimethyl-2-morpholin-4-yl-4-oxochromene-6-carboxamide], the “IC50 against PI3Kδ (order of magnitude in words)” value (shortened to “IC50 against PI3Kδ”) [1] is listed as “nanomolar”.
For `C[C@H](Nc1ncnc2nc[nH]c12)c1nc2ccc(F)cc2c(=O)n1-c1ccccc1` [Acalisib, 6-fluoro-3-phenyl-2-[(1S)-1-(7H-purin-6-ylamino)ethyl]quinazolin-4-one], the “IC50 against PI3Kδ” value [1] is given as “nanomolar”.
In the case of `Cc1c(CN2CCN(C(=O)[C@H](C)O)CC2)sc2c(N3CCOCC3)nc(-c3cnc(N)nc3)nc12` [Apitolisib, (2S)-1-[4-[[2-(2-aminopyrimidin-5-yl)-7-methyl-4-morpholin-4-ylthieno[3,2-d]pyrimidin-6-yl]methyl]piperazin-1-yl]-2-hydroxypropan-1-one], the “IC50 against mTOR (order of magnitude in words)” value (shortened to “IC50 against mTOR”) [2] is given as “nanomolar”.
For `COc1ccc(-c2ccc3ncc4c(c3c2)n(-c2ccc(N3CCNCC3)c(C(F)(F)F)c2)c(=O)n4C)cn1` [BGT-226, 8-(6-methoxypyridin-3-yl)-3-methyl-1-[4-piperazin-1-yl-3-(trifluoromethyl)phenyl]imidazo[4,5-c]quinolin-2-one], the “IC50 against PI3Kα (order of magnitude in words)” value (from here on “IC50 against PI3Kα”) [3] is given as “nanomolar”, the “IC50 against mTOR” value [2] is given as “nanomolar” and the “IC50 against PI3Kδ” value [1] is given as “nanomolar”. The “IC50 against PI3Kβ (order of magnitude in words)” value (from here on “IC50 against PI3Kβ”) [4] was “nanomolar” and the “IC50 against PI3Kγ (order of magnitude in words)” value (“IC50 against PI3Kγ” for short) [5] was “nanomolar”.
In the case of `CS(=O)(=O)N1CCc2c(-c3cnc(N)nc3)nc(N3CCOCC3)nc21` [CH5132799, 5-(7-(methylsulfonyl)-2-morpholino-6,7-dihydro-5H-pyrrolo[2,3-d]pyrimidin-4-yl)pyrimidin-2-amine], the “IC50 against class I PI3Ks (order of magnitude in words)” value [6] is listed as “nanomolar”.
For `COc1cccc2cc(-c3nc([C@H]4CC[C@H](C(=O)O)CC4)n4ncnc(N)c34)[nH]c12` [OSI-027, 4-[4-amino-5-(7-methoxy-1H-indol-2-yl)imidazo[5,1-f][1,2,4]triazin-7-yl]cyclohexane-1-carboxylic acid], the “IC50 against mTOR” value [2] is given as “nanomolar”.
In the case of `COc1ncc(-c2ccc3nccc(-c4ccnnc4)c3c2)cc1NS(=O)(=O)c1ccc(F)cc1F` [Omipalisib, 2,4-difluoro-N-[2-methoxy-5-(4-pyridazin-4-ylquinolin-6-yl)pyridin-3-yl]benzenesulfonamide], the “IC50 against PI3Kγ” value [5] is given as “nanomolar”.
For `O=C(Nc1ccncc1)Nc1ccc(-c2nc(N3CCOCC3)nc(N3C4CCC3COC4)n2)cc1` [PKI-179, 1-[4-[4-morpholin-4-yl-6-(3-oxa-8-azabicyclo[3.2.1]octan-8-yl)-1,3,5-triazin-2-yl]phenyl]-3-pyridin-4-ylurea], the “IC50 against PI3Kα” value [3] is given as “nanomolar”, the “IC50 against mTOR” value [2] is given as “nanomolar” and the “IC50 against PI3Kδ” value [1] is given as “nanomolar”. The “IC50 against PI3Kβ” value [4] was “nanomolar” and the “IC50 against PI3Kγ” value [5] was “nanomolar”.
In the case of `CCOc1c([C@H](C)n2nc(C)c3c(N)ncnc32)cc(Cl)c(F)c1[C@@H]1CNC(=O)C1` [Parsaclisib, (4R)-4-[3-[(1S)-1-(4-amino-3-methylpyrazolo[3,4-d]pyrimidin-1-yl)ethyl]-5-chloro-2-ethoxy-6-fluorophenyl]pyrrolidin-2-one], the “IC50 against PI3Kδ” value [1] is listed as “nanomolar”.
For `COc1ccc(Cl)c(Nc2nc3ccccc3nc2NS(=O)(=O)c2cccc(NC(=O)C(C)(C)N)c2)c1` [Pilaralisib, 2-amino-N-[3-[[3-(2-chloro-5-methoxyanilino)quinoxalin-2-yl]sulfamoyl]phenyl]-2-methylpropanamide], the “IC50 against PI3Kα” value [3] is given as “nanomolar”, the “IC50 against PI3Kδ” value [1] is given as “nanomolar” and the “IC50 against PI3Kβ” value [4] is given as “nanomolar”. The “IC50 against PI3Kγ” value [5] was “nanomolar”.
In the case of `CO[C@@H](C)Cn1c(=O)n(C)c2cnc3ccc(-c4cncc(C(C)(C)O)c4)cc3c21` [Samotolisib, 8-[5-(2-hydroxypropan-2-yl)pyridin-3-yl]-1-[(2S)-2-methoxypropyl]-3-methylimidazo[4,5-c]quinolin-2-one], the “concentrations at which mTORC1/2 is inhibited” value [7] is given as “low nanomolar concentrations”.
In the case of `Nc1nc2cc(-c3ccc4ncc(C(=O)N5CCOCC5)n4c3)ccc2o1` [Serabelisib, [6-(2-amino-1,3-benzoxazol-5-yl)imidazo[1,2-a]pyridin-3-yl]-morpholin-4-ylmethanone], the “IC50 against PI3Kα” value [3] is listed as “nanomolar”.
In the case of `C=CCN(/C=C1/C(=O)O[C@H](COC)[C@@]2(C)C1=C(O)C(=O)C1=C2[C@H](OC(C)=O)C[C@]2(C)C(=O)CC[C@@H]12)CC=C` [Sonolisib, [(3αR,6E,9S,9αR,10R,11αS)-6-[bis(prop-2-enyl)aminomethylidene]-5-hydroxy-9-(methoxymethyl)-9α,11α-dimethyl-1,4,7-trioxo-2,3,3a,9,10,11-hexahydroindeno[4,5-h]isochromen-10-yl]acetate], the “IC50 against PI3Kα” value [3] is given as “nanomolar”, the “IC50 against PI3Kδ” value [1] is given as “nanomolar” and the “IC50 against PI3Kγ” value [5] is given as “nanomolar”.
In the case of `Cc1nc(-c2cn3c(n2)-c2ccc(-c4cnn(C(C)(C)C(N)=O)c4)cc2OCC3)n(C(C)C)n1` [Taselisib, 2-methyl-2-[4-[2-(5-methyl-2-propan-2-yl-1,2,4-triazol-3-yl)-5,6-dihydroimidazo[1,2-d][1,4]benzoxazepin-9-yl]pyrazol-1-yl]propanamide], the “IC50 against PI3Kβ” value [4] is listed as “nanomolar” and the “IC50 against PI3Kγ” value [5] is listed as “nanomolar”.
For `CO[C@H]1C[C@@H]2CC[C@@H](C)[C@@](O)(O2)C(=O)C(=O)N2CCCC[C@H]2C(=O)O[C@H]([C@H](C)C[C@@H]2CC[C@@H](OC(=O)C(C)(CO)CO)[C@H](OC)C2)CC(=O)[C@H](C)/C=C(\C)[C@@H](O)[C@@H](OC)C(=O)[C@H](C)C[C@H](C)/C=C/C=C/C=C/1C` [Temsirolimus, [(1R,2R,4S)-4-[(2R)-2-[(1R,9S, 12S, 15R, 16E,18R, 19R,21R,23S,24E,26E,28E,30S,32S,35R)-1,18-dihydroxy-19,30-dimethoxy-15,17,21,23,29,35-hexamethyl-2,3,10, 14,20-pentaoxo-11,36-dioxa-4-azatricyclo[30.3.1.04,9]hexatriaconta-16,24,26,28-tetraen-12-yl]propyl]-2-methoxycyclohexyl]3-hydroxy-2-(hydroxymethyl)-2-methylpropanoate], the “IC50 against mTOR” value [2] is listed as “micromolar”.
In the case of `CC[C@H](Nc1ncnc2[nH]cnc12)c1oc2ccccc2c(=O)c1-c1cccc(F)c1` [Tenalisib, 3-(3-fluorophenyl)-2-[(1S)-1-(7H-purin-6-ylamino)propyl]chromen-4-one], the “IC50 against PI3Kδ” value [1] is listed as “nanomolar” and the “IC50 against PI3Kγ” value [5] is listed as “nanomolar”.
For `CCn1c(=O)c(-c2ccn[nH]2)cc2c(C)nc(N)nc21` [Voxtalisib, 2-amino-8-ethyl-4-methyl-6-(1H-pyrazol-5-yl)pyrido[2,3-d]pyrimidin-7-one], the “IC50 against PI3Kα” value [3] is listed as “nanomolar”, the “IC50 against mTOR” value [2] is listed as “nanomolar” and the “IC50 against PI3Kδ” value [1] is listed as “nanomolar”. For the same compound, the “IC50 against PI3Kβ” value [4] was “nanomolar” and the “IC50 against PI3Kγ” value [5] was “nanomolar”.
For `CN1CCC(c2ccccc2CC(C)(C)Nc2nc(N3CCOCC3)nc(-n3c(C(F)F)nc4ccccc43)n2)CC1` [Zandelisib, 4-[2-(difluoromethyl)benzimidazol-1-yl]-N-[2-methyl-1-[2-(1-methylpiperidin-4-yl)phenyl]propan-2-yl]-6-morpholin-4-yl-1,3,5-triazin-2-amine], the “IC50 against PI3Kδ” value [1] is listed as “nanomolar”.
`CCN1CCN(Cc2ccc(Nc3ncc(F)c(-c4cc(F)c5nc(C)n(C(C)C)c5c4)n3)nc2)CC1` [abemaciclib] showed an IC50 [8] of 4.4 µM, an IC50 [9] of 0.07 to 0.952 µM and an IC50 [10] of 6 µM.
